Experimental data: ChEMBL document CHEMBL1201862, “PubChem BioAssay data set” (2004)
The source made the active and inactive calls.

Columns and labels:
[1] = biological target: Voltage-dependent T-type calcium channel subunit alpha-1H (Homo sapiens, UniProt O95180); assay: Cav3.2 T-type channel inhibitors, cell-based, synthetic library set 1, calcium flux (AID 493022); assay type: functional
[2] = biological target: T1, Tyrosine-protein phosphatase non-receptor type 22 (Homo sapiens, UniProt Q9Y2R2); assay type: functional
T1 sequence (Q9Y2R2 whole entry): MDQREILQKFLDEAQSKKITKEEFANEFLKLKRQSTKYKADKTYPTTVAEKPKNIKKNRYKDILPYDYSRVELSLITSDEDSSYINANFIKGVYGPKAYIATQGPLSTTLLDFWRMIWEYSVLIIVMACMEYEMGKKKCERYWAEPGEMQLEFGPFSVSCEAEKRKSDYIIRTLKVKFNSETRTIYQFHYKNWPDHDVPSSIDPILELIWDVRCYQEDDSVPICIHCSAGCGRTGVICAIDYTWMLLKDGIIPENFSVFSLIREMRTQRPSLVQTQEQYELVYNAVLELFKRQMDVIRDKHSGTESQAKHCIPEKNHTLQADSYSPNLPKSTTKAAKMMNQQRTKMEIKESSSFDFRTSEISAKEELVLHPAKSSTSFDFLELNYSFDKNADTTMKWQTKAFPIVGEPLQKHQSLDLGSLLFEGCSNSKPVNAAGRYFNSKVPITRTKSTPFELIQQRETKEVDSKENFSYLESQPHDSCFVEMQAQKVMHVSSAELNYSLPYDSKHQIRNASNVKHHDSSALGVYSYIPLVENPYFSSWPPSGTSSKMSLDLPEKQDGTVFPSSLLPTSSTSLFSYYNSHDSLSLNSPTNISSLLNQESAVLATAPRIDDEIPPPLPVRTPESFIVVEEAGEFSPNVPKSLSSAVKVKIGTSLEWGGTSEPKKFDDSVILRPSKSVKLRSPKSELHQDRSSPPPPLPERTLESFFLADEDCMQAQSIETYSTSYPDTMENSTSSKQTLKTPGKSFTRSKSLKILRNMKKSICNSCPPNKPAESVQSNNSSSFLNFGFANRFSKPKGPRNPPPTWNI

[3] = biological target: Eukaryotic translation initiation factor 4E (Mus musculus, UniProt P63073); assay: eIF4E–eIF4G protein interaction inhibitors, dose response, biochemical, TR-FRET (AID 855); assay type: functional;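 further: potency for disrupting eIF4E binding to eIF4GI seen as loss of FRET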
[4] = biological target: T1, Tyrosine-protein phosphatase non-receptor type 22; assay type: functional; remark: listed apart in the source
[5] = biological target: T2, Tyrosine-protein phosphatase non-receptor type 7 (Homo sapiens, UniProt P35236); assay type: functional
T2 sequence (P35236 whole entry): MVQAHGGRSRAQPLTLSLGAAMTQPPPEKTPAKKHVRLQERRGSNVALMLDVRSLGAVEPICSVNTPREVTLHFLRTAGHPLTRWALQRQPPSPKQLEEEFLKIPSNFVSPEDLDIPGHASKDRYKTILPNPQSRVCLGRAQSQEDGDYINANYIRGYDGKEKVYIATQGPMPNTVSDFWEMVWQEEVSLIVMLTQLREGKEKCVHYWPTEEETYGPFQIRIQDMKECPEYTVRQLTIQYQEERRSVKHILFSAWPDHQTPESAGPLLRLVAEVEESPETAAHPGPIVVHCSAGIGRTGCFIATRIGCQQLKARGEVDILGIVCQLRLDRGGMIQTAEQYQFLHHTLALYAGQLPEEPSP

[6] = biological target: T3, Voltage-gated N-type calcium channel alpha-1B subunit/Amyloid beta A4 precursor protein-binding family A member 1 (Homo sapiens, UniProt Q00975+Q02410); assay type: protein assay
[7] = biological target: T3, Voltage-gated N-type calcium channel alpha-1B subunit/Amyloid beta A4 precursor protein-binding family A member 1; assay type: protein assay; remark: listed apart in the source
[8] = biological target: T1, Tyrosine-protein phosphatase non-receptor type 22; assay: inhibitors of LYP phosphatase, biochemical, fluorescence intensity, uHTS (AID 1779)
[9] = biological target: Envelope glycoprotein gp160 (Human immunodeficiency virus 1, UniProt Q6QLK5); assay: inhibitors of HIV fusion peptide binding, primary screen, biochemical, uHTS, fluorescence dequenching (AID 1986)
[10] = biological target: DNA dC->dU-editing enzyme APOBEC-3A (Homo sapiens, UniProt P31941); assay: APOBEC3A DNA deaminase inhibitors, dose response, biochemical (AID 504722); assay type: functional
Large T antigen = Large T antigen (Simian virus 40, UniProt P03070); assay type: functional, Betapolyomavirus macacae;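 further: Confirmatory-stage PubChem screen for compounds that inhibit SV40 T antigen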
[11] = biological target: FAD-linked sulfhydryl oxidase ALR (Homo sapiens, UniProt P55789); assay: inhibitors of human ALR sulfhydryl oxidase, dose response, biochemical, H2O2 detection, luminescence, cherry-pick (AID 493248)
[12] = biological target: DNA dC->dU-editing enzyme APOBEC-3G (Homo sapiens, UniProt Q9HC16); assay: Dose Response confirmation of small molecule APOBEC3G DNA Deaminase Inhibitors via a fluorescence-based single-stranded DNA deaminase assay. [Related pubchem assays (depositor defined):AID493012, AID493028]; assay type: functional
[13] = growth suppression of beta-catenin-knockout colon cells, dose response, cell-based, HCT116, human colon tumor (AID 1045); assay type: functional;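 further: HCT116 colon tumor cells with beta catenin knocked out; cells exposed to compound for 60 hours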
[14] = biological target: T4, Ubiquitin-conjugating enzyme E2 N (Homo sapiens, UniProt P61088); assay type: functional;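 further: Dose-response confirmation in a TR-FRET assay detecting UBC13-driven polyubiquitin chain formation, inhibition measured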
T4 sequence (P61088 whole entry): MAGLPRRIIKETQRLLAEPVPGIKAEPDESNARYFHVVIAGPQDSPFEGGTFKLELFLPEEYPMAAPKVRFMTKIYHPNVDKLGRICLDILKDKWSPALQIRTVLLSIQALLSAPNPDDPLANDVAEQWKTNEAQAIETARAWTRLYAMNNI

[15] = C. albicans growth with fluconazole, confirmation, fluorescence, retest (AID 2467); assay type: functional, cell-based
Nonstructural protein 1 = Nonstructural protein 1 (Influenza A virus, UniProt Q194T2); assay type: functional, Influenza A virus (A/California/07/2009(H1N1))
[16] = NIH-3T3 fibroblast cytotoxicity, dose response, cytotoxicity control, cell-based, fluorescence, Alamar Blue, secondary assay (AID 2327); assay type: functional;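 further: NIH-3T3 mouse fibroblasts cultured with fluconazole at 8 µg/mL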
[17] = cytotoxicity in KRAS-transformed pancreatic duct cells, primary screen, cell-based, fluorescence, HTS (AID 431); assay type: functional; details: Homo sapiens;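 further: cell line used: HPDE-C7K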
[18] = growth suppression of PTEN-null colon cells, dose response, cell-based, HCT116 PTEN knockout (AID 1047); assay type: functional;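 further: HCT116 colon tumor cells with PTEN knocked out; cells exposed to compound for 60 hours before readout; potency for loss of cell viability measured by luminescence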
Beta-galactosidase = Beta-galactosidase (Escherichia coli, UniProt Q8VNN2); assay: beta-galactosidase enzyme inhibitors and activators, dose response, artefact control for CCR6 antagonist project, biochemical, E. coli enzyme, set 3 (AID 504712); assay type: functional
[19] = cytotoxicity in HPDE-C7 cells, cell-based, fluorescence, HTS (AID 430); assay type: functional; details: Homo sapiens
[20] = microbe, parasite or virus in culture; assay type: functional; details: Mycobacterium tuberculosis
[21] = biological target: Luciferin 4-monooxygenase (Photinus pyralis, UniProt P08659); assay: Counter Screen for Luciferase-based Assay Positives. [Related pubchem assays: 620, 618, 411 ]
HT-1080 = assay: cytotoxicity in HT1080 fibrosarcoma cells, cell-based, fluorescence readout (AID 620); assay type: functional; details: Homo sapiens
[22] = biological target: T5, Short transient receptor potential channel 4 (Mus musculus, UniProt Q9QUQ5); assay: TRPC4 positive allosteric modulators, dose response, cell-based, HEK293 TRPC4/mu-opioid, Fluo-4 calcium, EC20 DAMGO (AID 434941); assay type: functional
T5 sequence (Q9QUQ5 whole entry): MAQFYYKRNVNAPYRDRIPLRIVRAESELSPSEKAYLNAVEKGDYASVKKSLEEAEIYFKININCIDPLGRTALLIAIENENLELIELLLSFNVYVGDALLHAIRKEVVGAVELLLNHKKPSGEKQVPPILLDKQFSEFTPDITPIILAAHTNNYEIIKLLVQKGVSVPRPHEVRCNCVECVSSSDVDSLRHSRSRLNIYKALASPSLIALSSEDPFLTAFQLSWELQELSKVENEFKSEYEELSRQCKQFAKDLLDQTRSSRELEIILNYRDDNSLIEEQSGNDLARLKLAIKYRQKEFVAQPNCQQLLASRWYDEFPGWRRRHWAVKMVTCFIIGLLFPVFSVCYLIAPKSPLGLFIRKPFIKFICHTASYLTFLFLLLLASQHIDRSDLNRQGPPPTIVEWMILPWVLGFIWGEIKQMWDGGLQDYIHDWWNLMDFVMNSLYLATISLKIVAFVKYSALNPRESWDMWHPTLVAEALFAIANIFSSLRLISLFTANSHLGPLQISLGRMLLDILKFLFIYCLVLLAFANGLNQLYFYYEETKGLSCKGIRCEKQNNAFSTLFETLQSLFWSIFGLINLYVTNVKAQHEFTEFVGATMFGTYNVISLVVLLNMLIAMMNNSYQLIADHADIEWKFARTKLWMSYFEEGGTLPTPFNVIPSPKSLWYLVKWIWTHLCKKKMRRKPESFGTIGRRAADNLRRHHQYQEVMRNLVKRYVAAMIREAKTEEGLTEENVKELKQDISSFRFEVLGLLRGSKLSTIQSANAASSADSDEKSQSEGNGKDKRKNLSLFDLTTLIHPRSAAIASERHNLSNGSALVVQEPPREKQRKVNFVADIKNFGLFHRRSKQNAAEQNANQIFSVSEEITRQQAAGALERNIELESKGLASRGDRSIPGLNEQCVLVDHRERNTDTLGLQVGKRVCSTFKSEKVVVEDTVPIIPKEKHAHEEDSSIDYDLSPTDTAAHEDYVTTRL

T3 sequence (Q00975 whole entry): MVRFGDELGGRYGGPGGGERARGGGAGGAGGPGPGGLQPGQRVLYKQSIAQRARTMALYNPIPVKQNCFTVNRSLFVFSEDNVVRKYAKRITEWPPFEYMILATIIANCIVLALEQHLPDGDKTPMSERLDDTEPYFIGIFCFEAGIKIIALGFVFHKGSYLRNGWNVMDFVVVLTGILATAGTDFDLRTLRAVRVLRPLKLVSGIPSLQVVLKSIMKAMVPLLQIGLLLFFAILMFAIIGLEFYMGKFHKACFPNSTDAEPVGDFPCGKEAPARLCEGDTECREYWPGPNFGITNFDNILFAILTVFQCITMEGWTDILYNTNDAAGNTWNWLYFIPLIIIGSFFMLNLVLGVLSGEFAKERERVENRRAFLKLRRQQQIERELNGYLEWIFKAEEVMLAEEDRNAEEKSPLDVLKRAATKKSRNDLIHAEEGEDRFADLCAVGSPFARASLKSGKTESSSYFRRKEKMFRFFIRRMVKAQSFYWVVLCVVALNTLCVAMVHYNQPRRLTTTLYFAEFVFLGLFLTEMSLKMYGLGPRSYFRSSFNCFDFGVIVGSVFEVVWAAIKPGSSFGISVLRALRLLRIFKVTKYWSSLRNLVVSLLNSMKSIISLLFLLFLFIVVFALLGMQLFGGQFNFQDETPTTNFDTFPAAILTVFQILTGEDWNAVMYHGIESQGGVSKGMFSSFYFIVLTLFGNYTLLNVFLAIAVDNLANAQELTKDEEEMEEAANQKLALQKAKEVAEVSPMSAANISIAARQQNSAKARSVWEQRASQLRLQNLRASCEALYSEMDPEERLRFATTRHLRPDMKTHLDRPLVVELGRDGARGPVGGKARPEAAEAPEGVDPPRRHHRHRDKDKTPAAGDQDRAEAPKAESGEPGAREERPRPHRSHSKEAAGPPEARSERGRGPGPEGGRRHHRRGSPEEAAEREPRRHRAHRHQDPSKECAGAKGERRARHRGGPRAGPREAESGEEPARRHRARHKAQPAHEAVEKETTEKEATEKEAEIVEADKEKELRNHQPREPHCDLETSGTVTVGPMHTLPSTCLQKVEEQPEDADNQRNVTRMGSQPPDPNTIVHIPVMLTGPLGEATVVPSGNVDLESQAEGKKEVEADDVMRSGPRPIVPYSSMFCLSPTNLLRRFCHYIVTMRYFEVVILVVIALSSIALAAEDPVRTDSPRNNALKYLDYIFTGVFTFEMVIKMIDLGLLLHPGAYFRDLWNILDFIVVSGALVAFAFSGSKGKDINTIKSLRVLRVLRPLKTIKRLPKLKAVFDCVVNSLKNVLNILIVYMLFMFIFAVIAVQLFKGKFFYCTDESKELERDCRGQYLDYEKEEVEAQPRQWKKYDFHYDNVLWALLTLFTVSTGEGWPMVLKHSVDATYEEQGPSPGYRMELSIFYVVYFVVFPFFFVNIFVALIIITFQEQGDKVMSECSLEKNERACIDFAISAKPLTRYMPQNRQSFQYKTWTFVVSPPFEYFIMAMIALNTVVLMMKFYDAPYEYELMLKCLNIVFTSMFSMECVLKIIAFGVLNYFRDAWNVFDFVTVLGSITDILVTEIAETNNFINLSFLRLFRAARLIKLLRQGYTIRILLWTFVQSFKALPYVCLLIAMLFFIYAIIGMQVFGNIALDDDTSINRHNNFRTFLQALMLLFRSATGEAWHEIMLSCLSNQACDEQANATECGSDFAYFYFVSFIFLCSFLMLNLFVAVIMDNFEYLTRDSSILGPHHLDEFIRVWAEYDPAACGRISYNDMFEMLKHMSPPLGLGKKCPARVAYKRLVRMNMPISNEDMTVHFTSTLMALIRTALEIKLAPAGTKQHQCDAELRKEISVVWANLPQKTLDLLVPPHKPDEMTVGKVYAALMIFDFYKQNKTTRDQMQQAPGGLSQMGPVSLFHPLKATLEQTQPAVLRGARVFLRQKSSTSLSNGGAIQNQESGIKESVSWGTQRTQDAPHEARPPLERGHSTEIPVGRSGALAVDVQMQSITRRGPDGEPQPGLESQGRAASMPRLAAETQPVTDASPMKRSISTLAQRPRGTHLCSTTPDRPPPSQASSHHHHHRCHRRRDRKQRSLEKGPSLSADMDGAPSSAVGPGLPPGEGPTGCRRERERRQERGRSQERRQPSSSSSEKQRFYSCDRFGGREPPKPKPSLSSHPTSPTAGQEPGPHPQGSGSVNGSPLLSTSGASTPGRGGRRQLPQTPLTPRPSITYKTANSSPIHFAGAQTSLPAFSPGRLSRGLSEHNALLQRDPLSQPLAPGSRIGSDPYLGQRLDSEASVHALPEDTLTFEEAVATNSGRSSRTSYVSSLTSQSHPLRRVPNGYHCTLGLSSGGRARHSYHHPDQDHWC
T3 sequence (Q02410 whole entry): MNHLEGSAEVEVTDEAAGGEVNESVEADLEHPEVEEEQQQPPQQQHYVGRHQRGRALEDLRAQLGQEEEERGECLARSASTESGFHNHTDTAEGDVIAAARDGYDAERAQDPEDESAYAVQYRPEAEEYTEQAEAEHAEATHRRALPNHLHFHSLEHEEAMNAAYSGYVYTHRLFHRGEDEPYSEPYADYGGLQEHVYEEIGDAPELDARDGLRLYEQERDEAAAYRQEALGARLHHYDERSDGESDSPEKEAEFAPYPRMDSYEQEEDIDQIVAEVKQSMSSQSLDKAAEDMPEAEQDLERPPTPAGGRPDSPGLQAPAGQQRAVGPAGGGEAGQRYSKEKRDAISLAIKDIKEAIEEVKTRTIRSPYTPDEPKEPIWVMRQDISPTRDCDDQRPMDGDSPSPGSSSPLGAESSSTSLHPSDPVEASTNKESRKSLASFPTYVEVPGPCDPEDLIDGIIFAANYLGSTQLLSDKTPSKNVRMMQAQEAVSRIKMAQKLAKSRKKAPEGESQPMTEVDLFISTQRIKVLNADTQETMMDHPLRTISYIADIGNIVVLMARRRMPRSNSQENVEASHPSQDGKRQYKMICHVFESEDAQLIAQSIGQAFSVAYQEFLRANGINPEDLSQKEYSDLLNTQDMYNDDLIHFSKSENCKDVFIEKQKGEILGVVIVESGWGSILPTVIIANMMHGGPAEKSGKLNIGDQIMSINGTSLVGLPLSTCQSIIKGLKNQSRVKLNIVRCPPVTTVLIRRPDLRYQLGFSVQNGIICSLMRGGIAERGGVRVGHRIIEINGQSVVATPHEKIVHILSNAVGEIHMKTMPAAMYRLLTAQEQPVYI
Sequence of DNA dC->dU-editing enzyme APOBEC-3A (P31941 whole entry): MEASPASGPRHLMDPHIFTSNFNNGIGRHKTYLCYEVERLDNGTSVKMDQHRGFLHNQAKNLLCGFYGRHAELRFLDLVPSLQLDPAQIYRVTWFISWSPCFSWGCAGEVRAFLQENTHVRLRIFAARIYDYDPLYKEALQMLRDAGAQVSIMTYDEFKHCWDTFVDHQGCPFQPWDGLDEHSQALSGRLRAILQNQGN
Sequence of Large T antigen (P03070 whole entry): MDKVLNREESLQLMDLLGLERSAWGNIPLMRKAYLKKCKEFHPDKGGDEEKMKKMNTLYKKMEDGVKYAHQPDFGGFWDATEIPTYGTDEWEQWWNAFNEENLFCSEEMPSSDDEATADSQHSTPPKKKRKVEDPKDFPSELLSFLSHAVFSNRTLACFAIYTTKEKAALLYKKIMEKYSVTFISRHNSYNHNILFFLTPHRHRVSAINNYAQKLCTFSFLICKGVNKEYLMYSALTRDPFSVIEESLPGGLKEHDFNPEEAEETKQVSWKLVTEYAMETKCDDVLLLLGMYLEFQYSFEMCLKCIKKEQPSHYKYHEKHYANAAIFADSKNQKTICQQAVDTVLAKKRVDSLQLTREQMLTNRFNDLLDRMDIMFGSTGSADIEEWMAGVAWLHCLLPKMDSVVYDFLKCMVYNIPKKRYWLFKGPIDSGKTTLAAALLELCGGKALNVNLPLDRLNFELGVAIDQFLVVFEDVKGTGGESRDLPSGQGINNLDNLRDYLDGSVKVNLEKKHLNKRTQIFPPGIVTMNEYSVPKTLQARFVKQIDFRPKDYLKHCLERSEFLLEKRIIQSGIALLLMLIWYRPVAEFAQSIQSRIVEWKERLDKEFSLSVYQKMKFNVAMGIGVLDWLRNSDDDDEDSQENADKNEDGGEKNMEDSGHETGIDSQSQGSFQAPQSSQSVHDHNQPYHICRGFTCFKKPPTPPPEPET
Sequence of Eukaryotic translation initiation factor 4E (P63073 whole entry): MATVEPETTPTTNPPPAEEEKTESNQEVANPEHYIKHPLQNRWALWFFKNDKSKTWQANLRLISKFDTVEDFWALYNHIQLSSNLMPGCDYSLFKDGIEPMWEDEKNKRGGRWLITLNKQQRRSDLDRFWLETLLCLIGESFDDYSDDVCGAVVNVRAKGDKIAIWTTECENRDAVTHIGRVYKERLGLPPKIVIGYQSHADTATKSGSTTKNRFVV
Sequence of Nonstructural protein 1 (Q194T2 whole entry): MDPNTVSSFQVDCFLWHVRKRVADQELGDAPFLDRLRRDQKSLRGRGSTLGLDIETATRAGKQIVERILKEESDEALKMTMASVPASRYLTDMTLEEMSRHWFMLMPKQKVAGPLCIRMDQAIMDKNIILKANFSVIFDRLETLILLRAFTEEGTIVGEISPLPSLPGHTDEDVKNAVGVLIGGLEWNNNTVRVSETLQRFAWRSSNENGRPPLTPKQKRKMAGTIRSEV
Sequence of FAD-linked sulfhydryl oxidase ALR (P55789 whole entry): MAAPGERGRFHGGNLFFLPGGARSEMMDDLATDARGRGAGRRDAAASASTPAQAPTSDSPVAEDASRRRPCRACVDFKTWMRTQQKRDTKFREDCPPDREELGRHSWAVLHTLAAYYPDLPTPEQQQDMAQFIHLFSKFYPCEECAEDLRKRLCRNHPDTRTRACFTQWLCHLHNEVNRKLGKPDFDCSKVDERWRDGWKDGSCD

Compound: O=C(COc1ccccc1Cl)Nc1nnc(-c2ccc3c(c2)OCO3)o1
- EC50 [1]: 3 µM (active)

Compound: CCOc1cc(/C=N/NC(=O)c2ccc(-c3csc(Nc4ccc(C)cc4)n3)cc2)ccc1OCC(=O)O
- IC50 [2]: 6.63 µM (active)
- IC50 [3]: 50 µM (inactive)
- IC50 [4]: 4.68 µM (active)
- IC50 [5]: 3.93 µM (active)
- IC50 [6]: 11.1 µM (active)
- IC50 [7]: 49.1 µM (active)
- IC50 [8]: 8.71 µM (active)
- IC50 [9]: 7.29 µM (active)

Compound: COc1cccc(/C=N/n2c(S)nnc2-c2cc(C)[nH]n2)c1O
- IC50 [10]: > 100 µM (inactive)
- IC50 (Large T antigen): 16 µM (active)
- AC50 [11]: 3.54 µM (active)
- IC50 [12]: 4.07 µM (active)

Compound: CN1CCN(CC(=O)N2CCn3c4c(c5cc(C6CCCCC6)ccc53)CCCC42)CC1 (stereo unspecified)
- EC50 [13]: 3.56 µM (active)
- IC50 [14]: > 20 µM (inactive)
- EC50 [15]: > 38 µM (not active)
- IC50 (Nonstructural protein 1): 18.9 µM (active)
- EC50 [16]: > 150 µM (inconclusive)
- EC50 [17]: 4.39 µM (active)
- EC50 [18]: 3.99 µM (active)
- IC50 (Beta-galactosidase): > 66.6 µM (inactive)
- EC50 [19]: 3.48 µM (active)
- CC50 [20]: 6.93 µM (active)
- EC50 [21]: 0.84 µM (active)
- EC50 (HT-1080): 14.7 µM (active)

Compound: Cc1cccc(/C=N/NC(=O)c2cc(Br)ccc2O)n1
- EC50 [22]: 4.22 µM (active)
